Source: the CheMixHub viscosity set
Values joined by “and” are separate entries in the source; they are usually repeats but may differ in a detail not shown here. Identical values can stand only once.

Tests used:
[1] = xn = mol fraction of the nth substance listed

CCCCCCCC/C=C\CCCCCCCC(=O)OCC(COC(=O)CCCCCCC/C=C\CCCCCCCC)OC(=O)CCCCCCC/C=C\CCCCCCCC + Cc1ccc(C)cc1
viscosity [mPa·s], [1], 101.33 kPa
Conditions | 293.15 K | 298.15 K | 303.15 K | 308.15 K | 313.15 K
x1 = 0.000755 | 0.6573 | 0.6175 | 0.5813 | 0.5465 | 0.5168
x1 = 0.001496 | 0.6699 | 0.6292 | 0.5923 | 0.5567 | 0.5261
x1 = 0.004118 | 0.7209 | 0.6762 | 0.6359 | 0.5968 | 0.5636
x1 = 0.007318 | 0.7825 | 0.7329 | 0.6883 | 0.6454 | 0.609
x1 = 0.01139 | 0.8597 | 0.8042 | 0.7541 | 0.706 | 0.665
x1 = 0.01526 | 0.9594 | 0.8955 | 0.8379 | 0.7833 | 0.7368
x1 = 0.02469 | 1.185 | 1.101 | 1.027 | 0.9558 | 0.8959
x1 = 0.02908 | 1.291 | 1.197 | 1.115 | 1.037 | 0.9704
x1 = 0.03513 | 1.421 | 1.316 | 1.222 | 1.134 | 1.06
x1 = 0.04678 | 1.777 | 1.637 | 1.513 | 1.399 | 1.302
x1 = 0.06075 | 2.241 | 2.061 | 1.885 | 1.733 | 1.605

CCCCCCCC/C=C\CCCCCCCC(=O)OCC(COC(=O)CCCCCCC/C=C\CCCCCCCC)OC(=O)CCCCCCC/C=C\CCCCCCCC + ClC(Cl)Cl
viscosity [mPa·s], [1], 101.33 kPa
Conditions | x1 = 0.000728 | x1 = 0.000907 | x1 = 0.00244 | x1 = 0.004913 | x1 = 0.007824 | x1 = 0.01322 | x1 = 0.01672 | x1 = 0.03078
293.15 K | 0.5839 | 0.5875 | 0.6352 | 0.695 | 0.8133 | 1.032 | 1.109 | 1.733
298.15 K | 0.5545 | 0.5581 | 0.603 | 0.6576 | 0.7684 | 0.9701 | 1.042 | 1.585
303.15 K | 0.5275 | 0.5306 | 0.5725 | 0.6237 | 0.727 | 0.9137 | 0.9804 | 1.474

CCCCCCCCC + CCCCCCCCCCCC
[1], 298.15 K, 101.33 kPa
Conditions | viscosity [mPa·s]
x1 = 0.0957 | 1.273
x1 = 0.1995 | 1.187
x1 = 0.3049 | 1.111
x1 = 0.4056 | 1.022
x1 = 0.5088 | 0.969
x1 = 0.6103 | 0.8955
x1 = 0.7039 | 0.8282
x1 = 0.8049 | 0.7721
x1 = 0.9023 | 0.7118

O=S(Cl)Cl + Cc1ccccc1
[1], 298.15 K, 101 kPa
Conditions | viscosity [mPa·s]
x1 = 0.261 | 0.5832
x1 = 0.426 | 0.6019
x1 = 0.559 | 0.6139
x1 = 0.72 | 0.6223
x1 = 0.802 | 0.625
x1 = 0.923 | 0.6236

CN1CCCCCC1=O + O
[1], 298.16 K, 101 kPa
Conditions | viscosity [mPa·s]
x2 = 0.0975 | 5.35
x2 = 0.2528 | 6.17
x2 = 0.4046 | 7.19
x2 = 0.4996 | 7.85
x2 = 0.577 | 8.2
x2 = 0.63 | 8.28
x2 = 0.7444 | 7.43
x2 = 0.8512 | 5.1

COCOC
viscosity [mPa·s]
Conditions | 293.15 K | 298.15 K | 303.1 K | 303.15 K | 308.15 K | 313.15 K
100 kPa | 0.371 | 0.357 | – | 0.346 | 0.337 | 0.329
101 kPa | – | – | 0.304 | – | – | –

CCC(O)CC + O
[1], 298.15 K, 101 kPa
Conditions | viscosity [mPa·s]
x2 = 0.0181 | 4.598
x2 = 0.0463 | 4.339
x2 = 0.0845 | 4.074
x2 = 0.1302 | 3.873
x2 = 0.1754 | 3.748
x2 = 0.1948 | 3.712
x2 = 0.2262 | 3.67
x2 = 0.2533 | 3.65
x2 = 0.2782 | 3.641
x2 = 0.3215 | 3.648

CC(=O)c1ccccc1 + COC(=O)c1ccccc1
viscosity [mPa·s], [1], 101 kPa
Conditions | x2 = 0.0946 | x2 = 0.1898 | x2 = 0.2861 | x2 = 0.386 | x2 = 0.4823 | x2 = 0.5819 | x2 = 0.6825 | x2 = 0.7877 | x2 = 0.8917
303.15 K | 1.527 | 1.558 | 1.588 | 1.611 | 1.608 | 1.606 | 1.6 | 1.593 | 1.614
313.15 K | 1.285 | 1.307 | 1.329 | 1.348 | 1.341 | 1.334 | 1.322 | 1.315 | 1.329

CCC(C)C(C)C (stereo not given)
Conditions | viscosity [mPa·s]
298.15 K, 101.33 kPa | 0.3898

CC(=O)c1ccccc1 + CCOC(C)=O
viscosity [mPa·s], [1], 100 kPa
Conditions | x1 = 0.0775 | x1 = 0.1574 | x1 = 0.2396 | x1 = 0.3244 | x1 = 0.4119 | x1 = 0.5021 | x1 = 0.5953 | x1 = 0.6915 | x1 = 0.7909 | x1 = 0.8937
303.15 K | 0.4772 | 0.5756 | 0.6734 | 0.7711 | 0.8688 | 0.9666 | 1.064 | 1.162 | 1.26 | 1.358
313.15 K | 0.424 | 0.5047 | 0.5856 | 0.6665 | 0.7474 | 0.8284 | 0.9093 | 0.9902 | 1.071 | 1.152
323.15 K | 0.374 | 0.4427 | 0.5114 | 0.5801 | 0.6488 | 0.7175 | 0.7862 | 0.8549 | 0.9236 | 0.9923

Cc1cccc(C)n1
viscosity
Conditions | 101 kPa | 101.33 kPa
293.15 K | – | 0.8373 mPa·s
295.15 K | 0.929 mPa·s | –
298.15 K | 0.8777 mPa·s | 0.7813 mPa·s
298.2 K | 0.806 mPa·s | –
300.12 K | – | 0.847 mPa·s
303 K | 0.7635 mPa·s | –
303.12 K | – | 0.833 mPa·s
303.24 K | 0.753 mPa·s | –
306.99 K | – | 0.774 mPa·s
308.15 K | – | 0.6861 mPa·s
308.26 K | 0.708 mPa·s | –
313 K | 0.6811 mPa·s and 0.6687 mPa·s | –
313.34 K | 0.663 mPa·s | –
318.15 K | – | 0.6032 mPa·s
318.39 K | 0.627 mPa·s | –
323 K | 0.6095 mPa·s and 0.5945 mPa·s | –

CN(C)P(=O)(N(C)C)N(C)C + CCCO
[1], 303.15 K, 101.3 kPa
Conditions | viscosity [mPa·s]
x1 = 0.0989 | 1.896
x1 = 0.1996 | 1.991
x1 = 0.3022 | 2.102
x1 = 0.4027 | 2.217
x1 = 0.4525 | 2.272
x1 = 0.598 | 2.444
x1 = 0.6994 | 2.569
x1 = 0.7809 | 2.666
x1 = 0.8672 | 2.766

O=S(Cl)Cl
Conditions | viscosity [mPa·s]
298.15 K, 101 kPa | 0.6194

FCC(F)(F)F + FC(F)C(F)(F)F
viscosity [mPa·s], [1], 101 kPa
Conditions | x1 = 0.25 | x1 = 0.5 | x1 = 0.746
298.15 K | 0.158 | 0.1739 | 0.1862
313.15 K | 0.1263 | 0.1395 | 0.151

CN(C)P(=O)(N(C)C)N(C)C
Conditions | viscosity [mPa·s]
303.15 K, 101.3 kPa | 2.928

CN(C)P(=O)(N(C)C)N(C)C + CCCCO
[1], 303.15 K, 101.3 kPa
Conditions | viscosity [mPa·s]
x1 = 0.0872 | 2.283
x1 = 0.1988 | 2.312
x1 = 0.2977 | 2.351
x1 = 0.3888 | 2.404
x1 = 0.4941 | 2.487
x1 = 0.5894 | 2.567
x1 = 0.6891 | 2.655
x1 = 0.7954 | 2.745
x1 = 0.8991 | 2.834
